Structures can show the parent of a compound that is named as a salt.
Assay: lipophilicity profile
Format: physicochemical
Conditions: neutral pH values versus acidic pH values
Excerpt: Usually, EC/HPMC films show sustained release behavior more or less independent of pH. […] This, together with the coating applied, is expected to result in a slower release at neutral pH values, sufficient to use the respective multi-layered particles for the application of this drug for the treatment of animals like cats.

COc1ccc(CCN2CCC[C@H](CN3CCc4cc(OC)c(OC)cc4CC3=O)C2)cc1OC [cilobradine hydrochloride]
lipophilicity: slightly more lipophilic at neutral pH values than at acidic pH values

Reference: patent US20140224680A1, “KIT-OF-PARTS” (BOEHRINGER INGELHEIM VETMEDICA GMBH, priority 2013, published 2014)
